Measured values from patent publication EP3355943B1, “METHODS AND SYSTEMS FOR TREATING MEDICAL DEVICES AND FLUIDS” (Ethicon, Inc., priority 2015, dated 2017).
Values joined by “and” are separate entries in the source; they are usually repeats but may differ in a detail not shown here. Equal values may be shown once.

Assays:
Format in all cases: biochemical
[1] = Wound dressing (fibrin pad) spiked with LPS, treated in cyclohexane containing CaSt; conditions: Tube 2: 10 mL cyclohexane with 0.1 g CaSt, 15 minutes rolling; for Endotoxin detected on Pad (EU): pad spiked 8.9 EU
Procedure: A wound dressing containing dry fibrinogen and dry thrombin on an absorbable support was tested as follows. The pad was spiked with LPS and then exposed to cyclohexane containing CaSt to determine the effect on detectable LPS.
Three 1x2 inch pieces of the dressing were spiked with endotoxin resulting in 8.9 EU of LPS. The pieces were allowed to dry for 20 minutes, then placed into 50 mL polypropylene conical tubes. 7.5 mL of LAL reagent water +2.5 mL 0.25M tris buffer was added to Tube 1. 10 mL of cyclohexane with 0.1 g of CaSt was added to Tube 2. 10 mL of cyclohexane was added to Tube 3. The tubes were closed and then placed on the bottle roller rotator machine for 15 minutes so that the tube could continuously roll and the dressing was constantly in contact with liquid.
Tube 1 solution was then diluted and tested for endotoxin on the MCS system. The fibrin pad pieces from Tube 2 and Tube 3 were removed and placed in new tubes and extracted in 7.5 mL of LAL reagent water + 2.5 mL 0.25M tris buffer. The solutions were then tested on the MCS system for endotoxin (LPS). Table 9. Results of testing of dressing in cyclohexane containing CaSt

[2] = Testing of various sources of LPS: detection of LPS after adding CaSt to spiked water
Procedure: Therefore, for the methods described above, the activity of endotoxin was tested with various sources of endotoxin. Laboratory grown endotoxin is purified while natural endotoxin will be present with other substances such as proteins and phospholipids.
The laboratory grown endotoxin used in this experiment was supplied by Charles River Laboratories.
Natural airborne endotoxin was captured using an electret filter. Electret filters are produced from dielectric polymer fibers that develop an electrical charge when air flows past them, capturing the endotoxin along with other particles. The endotoxin was extracted from the filter by placing the filter in endotoxin free water for an extended period of time.
Two other natural sources of endotoxin were obtained from water samples in the surrounding environment. One source was a pool of sitting rain water and other being a small puddle on the side of the Raritan River. The sitting rain water (SRW) was purified via chlorination and 0.2 µm filter. The Raritan River Water (RRW) was not altered in anyway. The same testing procedure was conducted for all sources of endotoxin.
Table 11. Detection of LPS after adding CaSt to test tubes containing water spiked with LPS

[3] = Suture testing in ethyl acetate containing CaSt: detection of LPS on suture; conditions: LPS-contaminated suture submerged in Ethyl Acetate w/ 5% Calcium Stearate, vortexed 10 seconds
Procedure: An absorbable VICRYL® (Polyglactin 910) suture (Size 1, Length: 27in) made of a copolymer made from 90% glycolide and 10% L-lactide was exposed to a solution containing LPS (endotoxin) (9 Strands of Vicryl suture were immersed in tubing with endotoxin solution (SRW, Concentration: 3980 EU/mL) for 10 minutes at a time at ambient temperature. The sutures were air dried for 20 minutes in a vented chemical hood and then placed in round bottom and dried The suture was then immersed into Ethyl Acetate (EtAc) containing CaSt, vortexed briefly for 10 seconds, dried for 20 minutes in a vented chemical hood, and extracted in endotoxin free water at ambient temperature. The suture extracted in endotoxin free water (LRW) was then tested for LPS using the Kinetic Chromogenic Method for Endotoxin Quantitation, Charles River Laboratories, Charleston S.C.

[4] = Kinetics of removal of LPS with different agitation techniques in presence of stearate salts; conditions: for Endotoxin Detected (EU): 5mL SRW, baseline 1,502; for Percent (%) Removed: vs SRW Baseline
Procedure: 5mL of SRW was added to each of the tubes. Each solution was tested for endotoxin removal after agitation based on with sonication, vortexing, or test tube rolling. Sonication samples were sonicated at each indicated time interval for 30 seconds at a magnitude of 30. Vortex samples were vortexed at each indicated time interval for 30 seconds at 2500 RPM. Rolling samples were constantly rolling at 10 rpm. The samples were tested on the MCS for endotoxin at 1 minute, 20 minutes, 40 minutes, 60 minutes, and 80 minutes.

[5] = Endotoxin removal by sonicated CaSt suspension stored 1 month; conditions: listed as CaSt suspension; for Percent Endotoxin Removal(15 min/30 min): sonicated suspension stored 1 month
Procedure: 10 ml of LRW water (LAL reagent water, contains no endotoxin) containing 0.04 g of CaSt suspension was sonicated using Misonix Probe Sonicator, Model: S-4000, Amplitude: 30, Time: 30 seconds and then the suspension was stored for 1 month at ambient temperature. Then 1 ml of the above suspension was added to 10 ml endotoxin containing water SRW and the resulting endotoxin concentrations in the combined solution measured after 15 min and 30 min, with the results presented in Table 14.

[6] = Charles River Standard, 0.018 g Calcium Stearate, 8330 EU spiked
[7] = Charles River Standard, 0.05 g Calcium Stearate, 8330 EU spiked
[8] = Charles River Standard, 0.15 g Calcium Stearate, 8330 EU spiked
[9] = Charles River Standard, 0.25 g Calcium Stearate, 8330 EU spiked
[10] = Dust Filter Extraction Water, 0.01 g Calcium Stearate, 9280 EU spiked
[11] = Dust Filter Extraction Water, 0.25 g Calcium Stearate, 9280 EU spiked
[12] = RRW, 0.01 g Calcium Stearate, 4340 EU spiked
[13] = RRW, 0.1 g Calcium Stearate, 4340 EU spiked
[14] = RRW, 0.25 g Calcium Stearate, 4340 EU spiked
[15] = SRW, 0.01 g Calcium Stearate, 11100 EU spiked

## CCCCCCCCCCCCCCCCCC(=O)O [Calcium Stearate]
[1]; Tube 1 = no cyclohexane, 8.9 EU
  Percent Endotoxin detected as compared to Tube 1: 20.2%
[1]
  Endotoxin detected on Pad (EU): 1.8 EU
[1]; listed as CaSt
  Endotoxin detected on Pad (EU): 2 EU
[2]; 0.1 grams of calcium stearate and higher, all sources of endotoxin
  percent of endotoxin recovered: under 5%
[2]; Charles River Standard, 0.007 g Calcium Stearate, 8330 EU spiked
  Endotoxin Detected (EU): 3995 EU
[2]; [6]
  Endotoxin Detected (EU): 1487.5 EU
  Percent of Endotoxin Detected: 17.9%
[2]; Charles River Standard, 0.028 g Calcium Stearate, 8330 EU spiked
  Endotoxin Detected (EU): 235 EU
[2]; [7]
  Endotoxin Detected (EU): 190.5 EU
  Percent of Endotoxin Detected: 2.3%
[2]; [8]
  Endotoxin Detected (EU): 86.5 EU
  Percent of Endotoxin Detected: 1.0%
[2]; [9]
  Endotoxin Detected (EU): 38.5 EU
  Percent of Endotoxin Detected: 0.5%
[2]; [10]
  Endotoxin Detected (EU): 3440 EU
  Percent of Endotoxin Detected: 37.1%
[2]; [11]
  Endotoxin Detected (EU): 28.5 EU
  Percent of Endotoxin Detected: 0.3%
[2]; [12]
  Endotoxin Detected (EU): 960 EU
  Percent of Endotoxin Detected: 22.1%
[2]; [13]
  Endotoxin Detected (EU): 165 EU
  Percent of Endotoxin Detected: 3.8%
[2]; [14]
  Endotoxin Detected (EU): 70 EU
  Percent of Endotoxin Detected: 1.6%
[2]; RRW, 0.35 g Calcium Stearate, 4340 EU spiked
  Percent of Endotoxin Detected: 2.6%
[2]; [15]
  Endotoxin Detected (EU): 2780 EU
  Percent of Endotoxin Detected: 25.0%
[2]; SRW, 0.25 g Calcium Stearate, 11100 EU spiked
  Percent of Endotoxin Detected: 1.0%
[3]
  Endotoxin Detected (EU): 23.4 EU and 21.78 EU and 25.62 EU
[4]; CaSt vs. other salt forms
  removal of LPS (in words), comparison of salts of stearic acid: more efficacious in removal of LPS
[4]; Rolling, 1 minute
  Endotoxin Detected (EU): 1,230 EU
  Percent (%) Removed: 18.1%
[4]; Rolling, 20 minutes
  Endotoxin Detected (EU): 1,050 EU
  Percent (%) Removed: 30.1%
[4]; Rolling, 40 minutes
  Endotoxin Detected (EU): 630 EU
  Percent (%) Removed: 58.1%
[4]; Rolling, 60 minutes
  Endotoxin Detected (EU): 637 EU
  Percent (%) Removed: 57.6%
[4]; Rolling, 80 minutes
  Endotoxin Detected (EU): 451 EU
  Percent (%) Removed: 70%
[4]; Sonication, 1 minute
  Endotoxin Detected (EU): 270 EU
  Percent (%) Removed: 82%
[4]; Sonication, 20 minutes
  Endotoxin Detected (EU): 130 EU
  Percent (%) Removed: 91.3%
[4]; Sonication, 40 minutes
  Endotoxin Detected (EU): 87.5 EU
  Percent (%) Removed: 94.2%
[4]; Sonication, 60 minutes
  Endotoxin Detected (EU): 56.9 EU
  Percent (%) Removed: 96.2%
[4]; Sonication, 80 minutes
  Endotoxin Detected (EU): 16.4 EU
  Percent (%) Removed: 98.9%
[4]; Vortexing, 1 minute
  Endotoxin Detected (EU): 451 EU
  Percent (%) Removed: 70%
[4]; Vortexing, 20 minutes
  Endotoxin Detected (EU): 301 EU
  Percent (%) Removed: 80%
[4]; Vortexing, 40 minutes
  Endotoxin Detected (EU): 139 EU
  Percent (%) Removed: 90.7%
[4]; Vortexing, 60 minutes
  Endotoxin Detected (EU): 173 EU
  Percent (%) Removed: 88.5%
[4]; Vortexing, 80 minutes
  Percent (%) Removed: 93.1%
[5]; 0.04 g CaSt in 10 ml LRW sonicated, stored 1 month, added to SRW, initial 732.5 EU/mL, 15 min
  Endotoxin EU/mL (15 min after addition of CaSt suspension): 372 EU/mL and 362 EU/mL
[5]; 0.04 g CaSt in 10 ml LRW sonicated, stored 1 month, added to SRW, initial 732.5 EU/mL, 30 min
  Endotoxin EU/mL (30 min after addition of CaSt suspension): 384 EU/mL and 278 EU/mL
[5]; 15 min
  Percent Endotoxin Removal(15 min/30 min): 49.2% and 50.6%
[5]; 30 min
  Percent Endotoxin Removal(15 min/30 min): 47.6% and 62.0%
